Patent US9006232B2, “Pyrimidone derivatives” (Mitsubishi Tanabe Pharma Corporation, priority 2009, dated 2015)
Counter-ions that a name gives are not always drawn.

The compounds below were run against bovine cerebral TPK1 (Bos taurus, UniProt A0A059UE90) (assay: Inhibitory activity against P-GS1 phosphorylation by bovine cerebral TPK1). Settings: P-GS1 phosphorylation, 41.7 μM [γ-32P] ATP, 25° C., 2 hours; read-out: IC50.
Assay type: biochemical
Procedure: Inhibitory Activity of the Medicament of the Present Invention Against P-GS1 Phosphorylation by Bovine Cerebral TPK1 […] The phosphorylation was started by adding ATP, and the reaction was conducted at 25° C. for 2 hours, and then stopped by adding 21% perchloric acid on ice cooling. The reaction mixture was centrifuged at 12,000 rpm for 5 minutes and adsorbed on P81 paper (Whatmann), and then the paper was washed four times with 75 mM phosphoric acid, three times with water and once with acetone. The paper was dried, and the residual radioactivity was measured using a liquid scintillation counter.

Sequence of bovine cerebral TPK1 (A0A059UE90 1-419): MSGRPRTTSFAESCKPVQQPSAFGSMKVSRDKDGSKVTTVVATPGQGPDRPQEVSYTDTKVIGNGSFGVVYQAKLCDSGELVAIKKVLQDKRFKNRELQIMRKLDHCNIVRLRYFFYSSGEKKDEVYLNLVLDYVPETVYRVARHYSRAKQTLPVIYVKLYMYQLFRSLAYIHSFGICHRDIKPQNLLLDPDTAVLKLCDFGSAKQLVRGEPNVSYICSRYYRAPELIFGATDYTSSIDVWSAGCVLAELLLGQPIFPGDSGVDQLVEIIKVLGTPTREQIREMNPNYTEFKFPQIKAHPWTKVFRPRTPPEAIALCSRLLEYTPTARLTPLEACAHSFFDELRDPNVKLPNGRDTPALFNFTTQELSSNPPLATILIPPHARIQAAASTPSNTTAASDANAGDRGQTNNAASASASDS

Structure (SMILES) | IC50 [nM]
CCCCCCOc1nc(-c2ccncc2)cc(=O)n1C [2.003, 2-Hexyloxy-3-methyl-6-pyridin-4-yl-3H-pyrimidin-4-one] | 260
Cn1c(OC2CCN(c3cncnc3)CC2)nc(-c2ccncc2F)cc1=O [1.229, 6-(3-Fluoro-pyridin-4-yl)-3-methyl-2-(1-pyrimidin-5-yl-piperidin-4-yloxy)-3H-pyrimidin-4-one] | 216
Cn1c(OCCCc2cccnc2)nc(-c2ccncn2)cc1=O [1.810, 1-Methyl-2-(3-pyridin-3-yl-propoxy)-1H-[4,4′]bipyrimidinyl-6-one] | 201
CN1CCC(CCN2CCC(Oc3nc(-c4ccncn4)cc(=O)n3C)CC2)CC1 [1.503, 1-Methyl-2-{1-[2-(1-methyl-piperidin-4-yl)ethyl]piperidin-4-yloxy)-1H-[4,4′]bipyrimidinyl-6-one] | 150
Cn1c(OC2CCN(c3ccc(N4CCN(C(=O)OC(C)(C)C)CC4)cc3)CC2)nc(-c2ccncn2)cc1=O [1.211, tert-Butyl 4-{4-[4-(1-methyl-6-oxo-1,6-dihydro-[4,4′]bipyrimidinyl-2-yloxy)piperidin-1-yl]phenyl}piperazine-1-carboxylate] | 977
Cn1c(OC[C@@H]2CCCN2c2ccc(F)cc2)nc(-c2ccncc2F)cc1=O [2.205, 2-[(2S)-1-(4-Fluoro-phenyl)pyrrolidin-2-ylmethoxy]-6-(3-fluoro-pyridin-4-yl)-3-methyl-3H-pyrimidin-4-one] | 18.4
CN1CCN(Cc2ccccc2N2CCC(Oc3nc(-c4ccncn4)cc(=O)n3C)CC2)CC1 [1.302, 1-Methyl-2-{1-[2-(4-methyl-piperazin-1-ylmethyl)phenyl]piperidin-4-yloxy}-1H-[4,4′]bipyrimidinyl-6-one] | 14.9
COc1cccc(N2CCCC(Oc3nc(-c4ccncn4)cc(=O)n3C)C2)c1 (stereo not drawn) [1.106, 2-[1-(3-Methoxy-phenyl)piperidin-3-yloxy]-1-methyl-1H-[4,4′]bipyrimidinyl-6-one] | 1.5
Cn1c(OC[C@H]2CCN(c3ccccc3)C2)nc(-c2ccncn2)cc1=O [2.209, 1-Methyl-2-[(3S)-1-phenyl-pyrrolidin-3-ylmethoxy]-1H-[4,4′] bipyrimidinyl-6-one] | 941
Cn1c(OCC2CCN(c3ccc(CN4CCCCC4)cc3)CC2)nc(-c2ccncc2F)cc1=O [1.234, 6-(3-Fluoro-pyridin-4-yl)-3-methyl-2-[1-(4-piperidin-1-ylmethyl-phenyl)piperidin-4-ylmethoxy]-3H-pyrimidin-4-one] | 15.6
Cn1c(O[C@H]2C[C@H]3CC[C@@H](C2)N3c2ccc(F)cc2)nc(-c2ccncn2)cc1=O [Compound No. 2.102, endo-2-[8-(4-Fluoro-phenyl)-8-aza-bicyclo[3.2.1]oct-3-yloxy]-1-methyl-1H-[4,4′]bipyrimidinyl-6-one] | 236
CC(=O)N1CCN(Cc2ccc(N3CCC(Oc4nc(-c5ccncn5)cc(=O)n4C)CC3)cc2)CC1 [1.212, 2-{1-[4-(4-Acetyl-piperazin-1-ylmethyl)phenyl]piperidn-4-yloxy}-1-methyl-1H-[4,4′]bipyrimidinyl-6-one] | 64.9
Cn1c(OC2CCCN(c3ccccc3F)C2)nc(-c2ccncn2)cc1=O (stereo not drawn) [1.103, 2-[1-(2-Fluoro-phenyl)piperidin-3-yloxy]-1-methyl-1H-[4,4′] bipyrimidinyl-6-one] | 49
Cn1c(OC2CCN(c3ccccc3CN3Cc4ccccc4C3)CC2)nc(-c2ccncn2)cc1=O [1.304, 2-{1-[2-(1,3-Dihydro-isoindol-2-ylmethyl)phenyl]piperidin-4-yloxy}-1-methyl-1H-[4,4′] bipyrimidinyl-6-one] | 25.2
CC1CCCCC1Oc1nc(-c2ccncn2)cc(=O)n1C (stereo not drawn) [Compound No. 1.801, 1-Methyl-2-(2-methyl-cyclohexyloxy)-1H-[4,4′] bipyrimidinyl-6-one] | 58.1
CC(=O)N1CCN(c2ccc(N3CCC(Oc4nc(-c5ccncn5)cc(=O)n4C)CC3)cc2)CC1 [1.210, 2-{1-[4-(4-Acetyl-piperazin-1-yl)phenyl]piperidin-4-yloxy}-1-methyl-1H-[4,4′]bipyrimidinyl-6-one] | 27.4
Cc1ccccc1N1CCC(Oc2nc(-c3ccncn3)cc(=O)n2C)CC1 [1.206, 1-Methyl-2-(1-o-tolyl-piperidin-4-yloxy)-1H-[4,4′]bipyrimidinyl-6-one] | 59.9
COc1ccc(N2CCCC(Oc3nc(-c4ccncn4)cc(=O)n3C)C2)cc1 (stereo not drawn) [1.107, 2-[1-(4-Methoxy-phenyl)piperidin-3-yloxy]-1-methyl-1H-[4,4′]bipyrimidinyl-6-one] | 98.2
CN(C)Cc1ccc(CCOc2nc(-c3ccncc3)cc(=O)n2C)cc1 [Compound No. 2.402, 2-[2-(4-Dimethylaminomethyl-phenyl)ethoxy]-3-methyl-6-pyridin-4-yl-3H-pyrimidin-4-one dihydrochloride] | 150
Cn1c(OC2CCNCC2)nc(-c2ccncc2F)cc1=O [1.204, 6-(3-Fluoro-pyridin-4-yl)-3-methyl-2-(piperidin-4-yloxy)-3H-pyrimidin-4-one] | 245

Structure (SMILES) | IC50 [nM]
CCN(CCOc1nc(-c2ccncc2F)cc(=O)n1C)c1cccc(C)c1 [1.808, 2-[2-(Ethyl-m-tolyl-amino)-ethoxy]-6-(3-fluoro-pyridin-4-yl)-3-methyl-3H-pyrimidin-4-one] | 67
Cn1c(OC2CCN(CCC3CCNCC3)CC2)nc(-c2ccncn2)cc1=O [Compound No. 1.501, 1-Methyl-2-[1-(2-piperidin-4-yl-ethyl)piperidin-4-yloxy]-1H-[4,4′] bipyrimidinyl-6-one] | 69
Cn1c(OCCNc2ccccc2)nc(-c2ccncc2)cc1=O [1.807, 3-Methyl-2-(2-phenylamino-ethoxy)-6-pyridin-4-yl-3H-pyrimidin-4-one] | 99
Cn1c(OCCOc2ccccc2)nc(-c2ccncc2)cc1=O [1.805, 3-Methyl-2-(2-phenoxy-ethoxy)-6-pyridin-4-yl-3H-pyrimidin-4-one] | 370
Cn1c(OCC2(c3ccccc3)OCCO2)nc(-c2ccncn2)cc1=O [Compound No. 2.501, 1-Methyl-2-(2-phenyl-[1,3]dioxolan-2-ylmethoxy)-1H-[4,4′] bipyrimidinyl-6-one] | 386
Cn1c(OC2CCCN(c3ccccn3)C2)nc(-c2ccncn2)cc1=O (stereo not drawn) [1.108, 1-Methyl-2-(1-pyridin-2-yl-piperidin-3-yloxy)-1H-[4,4′]bipyrimidinyl-6-one] | 11.7
Cn1c(OC2CCN(CCC3CCN(Cc4ccccc4)CC3)CC2)nc(-c2ccncn2)cc1=O [Compound No. 1.502, 2-{1-[2-(1-Benzyl-piperidin-4-yl)ethyl]piperidin-4-yloxy}-1-methyl-1H-[4,4′]bipyrimidinyl-6-one] | 33.9
CN1CCN(Cc2cccc(N3CCC(Oc4nc(-c5ccncn5)cc(=O)n4C)CC3)c2)CC1 [1.222, 1-Methyl-2-{1-[3-(4-methyl-piperazin-1-ylmethyl)phenyl]piperidin-4-yloxy}-1H-[4,4′] bipyrimidinyl-6-one] | 21.5
Cn1c(OC2CCN(c3ccc(CN4CCCC4=O)cc3)CC2)nc(-c2ccncc2F)cc1=O [1.218, 6-(3-Fluoro-pyridin-4-yl)-3-methyl-2-{1-[4-(2-oxo-pyrrolidin-1-ylmethyl)phenyl]piperidin-4-yloxy}-3H-pyrimidin-4-one] | 153
Cn1c(OC2CCN(c3ccc4c(c3)CNC4)CC2)nc(-c2ccncn2)cc1=O [1.225, 2-[1-(2,3-Dihydro-1H-isoindol-5-yl)piperidin-4-yloxy]-1-methyl-1H-[4,4′]bipyrimidinyl-6-one] | 9.4
Cn1c(OCC(OC2CCCCO2)c2ccccc2)nc(-c2ccncn2)cc1=O (stereo not drawn) [Compound No. 2.502, 1-Methyl-2-[2-phenyl-2-(tetrahydro-pyran-2-yloxy)ethoxy]-1H-[4,4′]bipyrimidinyl-6-one] | 349
Cc1ccc(S(=O)(=O)N2CCC(Oc3nc(-c4ccncn4)cc(=O)n3C)CC2)cc1 [1.111, 1-Methyl-2-[1-(toluene-4-sulfonyl)piperidin-4-yloxy]-1H-[4,4′] bipyrimidinyl-6-one] | 194
Cn1c(OC2CCN(Cc3ccccc3)CC2)nc(-c2ccncn2)cc1=O [1.504, 2-(1-Benzyl-piperidin-4-yloxy)-1-methyl-1H-[4,4′]bipyrimidinyl-6-one] | 955
Cn1c(OC2CCN(c3cccc(CN4CCOCC4)c3)CC2)nc(-c2ccncn2)cc1=O [1.221, 1-Methyl-2-[1-(3-morpholin-4-ylmethyl-phenyl)piperidin-4-yloxy]-1H-[4,4′]bipyrimidinyl-6-one] | 31.5
CN1CCN(Cc2ccc(N3CCC(Oc4nc(-c5ccncn5)cc(=O)n4C)CC3)cc2)CC1 [Compound No. 1.203, 1-Methyl-2-{1-[4-(4-methyl-piperazin-1-ylmethyl)phenyl]piperidin-4-yloxy}-1H-[4,4′] bipyrimidinyl-6-one] | 6.4
Cn1c(OC2CCN(c3ccccc3)CC2)nc(-c2ccncn2)cc1=O [1.205, 1-Methyl-2-(1-phenyl-piperidin-4-yloxy)-1H-[4,4′]bipyrimidinyl-6-one] | 37.6
Cn1c(OC2CCCN(c3ccc(F)cc3)C2)nc(-c2ccncn2)cc1=O (stereo not drawn) [1.105, 2-[1-(4-Fluoro-phenyl)piperidin-3-yloxy]-1-methyl-1H-[4,4′] bipyrimidinyl-6-one] | 61.4
Cn1c(OC2CCN(c3ccc4c(c3)COC(=O)N4)CC2)nc(-c2ccncn2)cc1=O [Compound No. 1.401, 1-Methyl-2-{[1-(2-oxo-1,4-dhydro-2H-3,1-benzoxazin-6-yl)piperidin-4-yl]oxy}-1H-[4,4′] bipyrimidinyl-6-one] | 43.7
Cn1c(OC2CCN(c3ccccc3CN3CCOCC3)CC2)nc(-c2ccncn2)cc1=O [Compound No. 1.301, 1-Methyl-2-[1-(2-morpholin-4-ylmethyl-phenyl)piperidin-4-yloxy]-1H-[4,4′]bipyrimidinyl-6-one] | 61.1
